Experimental data taken from paper PMC8879074, “A Novel Small Molecular Prostaglandin Receptor EP4 Antagonist, L001, Suppresses Pancreatic Cancer Metastasis” (Molecules, 2022).

Legend:
EP4 [1] = target: T1, EP4 (Homo sapiens, UniProt P35408); assay: cAMP responsive element (CRE) luciferase reporter assay; format: cell-based; design: host or cells: HEK293 (results) / CHO-K1 (methods)
Method: (§1) CHO-K1 cells or pancreatic cancer cell lines were transfected with a cAMP responsive element (CRE) reporter or TEAD reporter using lipofectamine 2000 according to the manufacturer’s manual. Transfected cells were treated with varied concentrations of compounds for 24 h. Then, cells were lysed and luciferase activities were determined using Dual-Luciferase Reporter Assay Kit (Promega, Madison, WI, USA).

[2] = system: YAP/TEAD reporter in BxPC-3 cells; assay: TEAD-driven luciferase reporter assay, BxPC-3; format: cell-based, human; details: 16 h
Method: as §1, with “Transfected cells were treated with varied concentrations of compounds for 24 h.” left out

BxPC-3 cells = assay: Transwell migration assay, BxPC-3; format: cell-based, human; details: BxPC-3; with PGE2; 24 h
Method: (§2) The transwell assay was conducted as described previously, using 8 μm pore transwell inserts (Corning, NY, USA). Cells were suspended in serum-free DMEM and seeded into upper chambers at appropriate density. The bottom chamber was filled with DMEM supplemented with 10% fetal bovine serum and indicated concentrations of PGE2. The compounds were added in both upper and bottom chambers. […] Migrated cells were counted and quantified using image J.

[3] = Body weight of mice in Pan02-Luc metastasis model; format: in vivo, C57BL/6 mice; details: L001 75 mg/kg p.o. daily; gemcitabine 25 mg/kg i.p. twice a week; n = 6
Method: Male C57/BL6 mice (6–8 weeks) were obtained from the National Rodent Laboratory Animal Resources (NRLAR, Shanghai, China). All mice were housed according to Institutional Animal Care and Use Committee guidelines and under a protocol approved by East China Normal University Ethics Committee with respect to animal care and welfare assurance. The bioluminescent liver metastasis mouse model was established as described previously. In brief, 2 × 10^6 Pan02/luc cells suspended in 50 μL of PBS were injected into mice spleen. […] Tumor metastasis was monitored by using an in vivo imaging system following intraperitoneal injection with D-Luciferin (2 mg per mouse; Promega). Bioluminescence intensity was recorded every seven days by a Xenogen IVIS-200 Optical in vivo imaging system (PerkinElmer; Waltham, MA, USA) for up to 4 weeks. The mouse body weight was measured every other day. Survival curve analysis was performed using GraphPad Prism 7.

Pan02 cells [4] = assay: Cell viability assay (MTS), Pan02; format: cell-based, murine; details: 72 h
Method: Cells were seeded into 96-well plates and treated with varied concentrations of compounds for 72 hrs. Cell viabilities were determined by using MTS reagent (Promega, Madison, WI, USA) according to the manufacturer’s manual. Spectrophotometric absorbance at 490 nm was measured by Flexstation® 3 Multi-Mode Microplate Reader (Molecular Devices, San Jose, CA, USA). The experiments were independently repeated three times.

[5] = system: YAP, CYR61, CTGF, Vimentin, Snail, E-cadherin mRNA in BxPC-3 cells; assay: Real-time qPCR of YAP, YAP target genes and EMT markers, BxPC-3; format: cell-based, human; details: 12 h
Method: Total RNA was extracted from cells using TRIzol reagent. The cDNA was synthesized by RT-PCR kit (Vazyme Biotech, Nanjing, China). The band intensity was determined by the gel image analysis system (Bio-Rad, Hercules, CA, USA). SYBR Green-based qPCR (Yeason, Shanghai, China) was conducted subsequently. Relative mRNA levels of target genes were normalized with β-actin. The sequences of primers are listed in Supplementary Table S1. The raw data are listed in Supplementary Table S2.

rat EP4 = target: T2, rat EP4 (Rattus norvegicus, UniProt P43114); assay: Calcium flux assay, rat EP4; format: cell-based
T2 construct: expressed in transfected cells; host or cells: CHO-Gα16
Method: (§3) Calcium flux assay was conducted as described in our previous study. Briefly, CHO-Gα16 cells were transfected, respectively, with human EP1, human EP2, human EP3, human EP4, monkey EP4, mouse EP4 and rat EP4 overexpression constructs using lipofectamine 2000 according to the manufacturer’s manual. Cells were then seeded into a 96-well black plate with a cell density of 2 × 10^4 cells/100 μL per well for a 16-h culture. On the next day, cells were incubated for 45 min with reagents (100 μL/well) of Calcium-5 Assay Kit (Molecular Devices, San Jose, CA, USA). Then, cells were pre-treated with indicated concentrations of L001 for 15 min and stimulated with PGE2 (EC80). The calcium flux was detected subsequently by a Flexstation® 3 Multi-Mode Microplate Reader (Molecular Devices, San Jose, CA, USA).

human EP2 = target: T3, human EP2 (Homo sapiens, UniProt P43116); assay: Calcium flux assay, human EP2; format: cell-based; details: CHO-Gα16 cells, PGE2 (EC80)
T3 construct: expressed in transfected cells; host or cells: CHO-Gα16
Method: as §3

[6] = system: YAP/TEAD reporter in Pan02 cells; assay: TEAD-driven luciferase reporter assay, Pan02; format: cell-based, murine; details: 16 h
Method: as §1, with “Transfected cells were treated with varied concentrations of compounds for 24 h.” left out

Pan02 cells [7] = assay: Wound healing assay, Pan02; format: cell-based, murine; details: 0.1 μM PGE2, 24 h, dose-dependent
Method: The wound healing assay was performed according to a standard protocol as described before. Briefly, Pan02 and BxPC-3 cells were grown as a confluent monolayer in 12-well plates (Corning, Corning, NY, USA) overnight and starved with serum-free medium for 6 h. The monolayer cells were disrupted with a P100 micropipette tip (JET BIOFIL, Guangzhou, China) and rinsed with PBS to remove detached cells. Medium containing different concentrations of compounds was added subsequently. After 24 h, treated cells were stained with 2 μM calcein-AM (Yeasen, Shanghai, China) for 20 min and washed with PBS. Photos were taken of the area in the scraped zone of each dish at 100× magnification by using an inverted fluorescent microscope (OLYMPUS, Tokyo, Japan).

EP4 [8] = target: T1, EP4; assay: TANGO assay (EP4/β-arrestin2 interaction); format: cell-based; design: tTA transcription factor (C); expressed in transfected cells; host or cells: CHO-K1
Method: TANGO assay was performed as described previously with some modification. Briefly, CHO-K1 cells were co-transfected with plasmids of EP4-TANGO, β-arrestin-TEV and tTA-luc at a ratio of 0.5:1:1. After 4 h, transfected cells were seeded into 96-well plates and cultured overnight. Then, cells were starved for 5 h and treated with different concentrations of compounds. After incubation for 16 h, cells were lysed and the luciferase activities were determined using Dual-Luciferase Reporter Assay Kit (Promega, Madison, WI, USA).

Pan02 cells [9] = assay: Transwell migration assay, Pan02; format: cell-based, murine; details: Pan02; with PGE2; 24 h
Method: as §2

T1 sequence (P35408 whole entry): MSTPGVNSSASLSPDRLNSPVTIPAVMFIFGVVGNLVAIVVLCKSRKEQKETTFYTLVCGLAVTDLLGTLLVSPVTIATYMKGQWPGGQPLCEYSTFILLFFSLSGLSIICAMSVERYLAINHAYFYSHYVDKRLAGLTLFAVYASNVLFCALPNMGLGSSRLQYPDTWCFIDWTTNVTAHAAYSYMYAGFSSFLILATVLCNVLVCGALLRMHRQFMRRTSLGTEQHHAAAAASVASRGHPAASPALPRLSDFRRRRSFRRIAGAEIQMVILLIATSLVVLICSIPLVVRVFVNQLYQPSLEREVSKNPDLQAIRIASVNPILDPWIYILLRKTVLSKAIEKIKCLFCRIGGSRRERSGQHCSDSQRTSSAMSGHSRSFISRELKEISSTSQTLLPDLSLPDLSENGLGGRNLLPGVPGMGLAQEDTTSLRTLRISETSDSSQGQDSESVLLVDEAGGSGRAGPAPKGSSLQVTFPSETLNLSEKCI
T3 sequence (P43116 whole entry): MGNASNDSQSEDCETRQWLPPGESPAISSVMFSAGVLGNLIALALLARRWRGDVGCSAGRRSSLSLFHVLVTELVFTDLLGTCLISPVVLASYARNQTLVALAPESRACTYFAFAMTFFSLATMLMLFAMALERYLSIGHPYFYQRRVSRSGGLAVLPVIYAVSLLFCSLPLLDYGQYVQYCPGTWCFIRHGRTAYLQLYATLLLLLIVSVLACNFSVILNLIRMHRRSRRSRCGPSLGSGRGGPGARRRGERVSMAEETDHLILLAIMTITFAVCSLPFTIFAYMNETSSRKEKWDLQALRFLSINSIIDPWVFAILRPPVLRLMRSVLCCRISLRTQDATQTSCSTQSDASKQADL
T2 sequence (P43114 whole entry): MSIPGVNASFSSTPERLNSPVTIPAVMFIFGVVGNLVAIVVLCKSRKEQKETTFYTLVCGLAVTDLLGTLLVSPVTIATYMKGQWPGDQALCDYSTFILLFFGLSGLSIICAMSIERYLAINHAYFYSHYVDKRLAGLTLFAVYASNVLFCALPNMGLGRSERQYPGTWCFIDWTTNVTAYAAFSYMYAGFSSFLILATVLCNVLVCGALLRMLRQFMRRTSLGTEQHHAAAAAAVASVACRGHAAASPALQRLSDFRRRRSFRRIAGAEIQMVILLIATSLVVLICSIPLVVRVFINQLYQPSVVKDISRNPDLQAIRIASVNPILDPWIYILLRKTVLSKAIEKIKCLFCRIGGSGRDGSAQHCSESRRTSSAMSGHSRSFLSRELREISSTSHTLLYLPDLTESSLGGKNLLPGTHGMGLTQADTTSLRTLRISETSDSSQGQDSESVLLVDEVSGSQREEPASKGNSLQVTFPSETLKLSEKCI

In the case of `C[C@H](NC(=O)c1c(Cc2cccc(C(F)(F)F)c2)sc2c1CCOC2)c1ccc(C(=O)O)cc1` [L001], the IC50 (EP4 [1]) is reported as 7.29 ± 0.64 nM, the “antagonism efficacy on EP4 compared with E7046” value (EP4 [1]; CRE reporter assay) is reported as “over 5 fold” and the “PGE2-driven YAP/TEAD reporter activity” value [2] is reported as “remarkably suppressed”. The “migrated cells in the lower layer of the transwell” value (BxPC-3 cells) was “reduced migrated cells”, the body weight loss [3] was “barely found” and the cell viability (Pan02 cells [4]) was “did not affect the cell viabilities”. The “PGE2-aroused upregulation of mRNA levels of Vimentin and Snail” value [5] was “remarkably abrogated”, the “PGE2-mediated downregulation of E-cadherin's expression” value [5] was “reversed” and the “mRNA expression levels of YAP, CYR61 and CTGF induced by PGE2, in comparison with E7046” value ([5]; PGE2 0.1 μM, compound 10 μM) was “stronger reductions”. For the same molecule, the IC50 (rat EP4) was 14.2 ± 0.88 nM, the IC50 (human EP2) was > 10 µM and the “PGE2-driven YAP/TEAD reporter activity” value [6] was “remarkably suppressed”. For the same molecule, the PGE2-triggered wound closure (Pan02 cells [7]) was “significantly blocked”, the IC50 (EP4 [8]) was 0.16 ± 0.03 nM and the “migrated cells in the lower layer of the transwell” value (Pan02 cells [9]) was “reduced migrated cells”.
